From ChEMBL document CHEMBL3885881, “DrugMatrix”

Species on record: Rattus norvegicus
Assay: DrugMatrix - Regimen: Daily Repeat
Type: toxicity, organism-based, Sprague-Dawley
Set-up: regimen Daily Repeat, gender Male, age 6-8 weeks
Settings: in vivo, po, 0 mg/kg, route oral GAVAGE, dose level Control, vehicle .5 % CMC; for ABSOLUTE BASOPHIL / ABSOLUTE EOSINOPHIL / ABSOLUTE LYMPHOCYTE / ABSOLUTE MONOCYTE / ABSOLUTE SEGMENTED NEUTROPHIL / BASOPHIL / EOSINOPHIL / ERYTHROCYTE COUNT / HEMATOCRIT / HEMOGLOBIN / LEUKOCYTE COUNT / LYMPHOCYTE / MEAN CORPUSCULAR HEMOGLOBIN / MEAN CORPUSCULAR HEMOGLOBIN CONCENTRATION / MEAN CORPUSCULAR VOLUME / MONOCYTE / NEUTROPHIL / NUCLEATED RED BLOOD CELLS / PLATELET COUNT: tissue Blood; for ALANINE AMINOTRANSFERASE / ALBUMIN / ALKALINE PHOSPHATASE / ASPARTATE AMINOTRANSFERASE / BLOOD UREA NITROGEN / CARBON DIOXIDE / CHLORIDE / CHOLESTEROL / CREATINE PHOSPHOKINASE / CREATININE / GLUCOSE / LACTATE DEHYDROGENASE / LIPASE / PHOSPHORUS / POTASSIUM / SODIUM / TOTAL BILIRUBIN / TOTAL PROTEIN / URIC ACID: tissue Plasma

## COc1cc(OC)c(C(=O)CCCN2CCCC2)c(OC)c1 [BUFLOMEDIL]
72 h, time 3 day
  ABSOLUTE BASOPHIL: 0 CELLS/uL
  ABSOLUTE EOSINOPHIL: 0 CELLS/uL
  ABSOLUTE LYMPHOCYTE: 10913.67 CELLS/uL
  ABSOLUTE MONOCYTE: 85.33 CELLS/uL
  ABSOLUTE SEGMENTED NEUTROPHIL: 1401 CELLS/uL
  BASOPHIL: 0%
  EOSINOPHIL: 0%
  ERYTHROCYTE COUNT: 5.57 x10E6/uL
  HEMATOCRIT: 35.58%
  HEMOGLOBIN: 13.8 G/DL
  LEUKOCYTE COUNT: 12.4 x10E3/uL
  LYMPHOCYTE: 88%
  MEAN CORPUSCULAR HEMOGLOBIN: 24.78 pg
  MEAN CORPUSCULAR HEMOGLOBIN CONCENTRATION: 38.82 G/DL
  MEAN CORPUSCULAR VOLUME: 63.88 fL
  MONOCYTE: 0.67%
  NEUTROPHIL: 11.33%
  NUCLEATED RED BLOOD CELLS: 0 /100WBC
  PLATELET COUNT: 1162.33 x10E3/uL
  ALANINE AMINOTRANSFERASE: 53 u/L
  ALBUMIN: 4.17 G/DL
  ALKALINE PHOSPHATASE: 374.5 u/L
  ASPARTATE AMINOTRANSFERASE: 89.5 u/L
  BLOOD UREA NITROGEN: 16.33 mg/dL
  CARBON DIOXIDE: 29.17 mmol/L
  CHLORIDE: 97.67 MEQ/L
  CHOLESTEROL: 77 mg/dL
  CREATINE PHOSPHOKINASE: 464.83 u/L
  CREATININE: 0.14 mg/dL
  GLUCOSE: 164 mg/dL
  LACTATE DEHYDROGENASE: 155.5 u/L
  LIPASE: 9.17 u/L
  PHOSPHORUS: 12.4 mg/dL
  POTASSIUM: 6.91 MEQ/L
  SODIUM: 141.47 MEQ/L
  TOTAL BILIRUBIN: 0.2 mg/dL
  TOTAL PROTEIN: 5.95 G/DL
  URIC ACID: 1.72 mg/dL
120 h, time 5 day
  ABSOLUTE BASOPHIL: 0 CELLS/uL
  ABSOLUTE EOSINOPHIL: 20.5 CELLS/uL
  ABSOLUTE LYMPHOCYTE: 13871.67 CELLS/uL
  ABSOLUTE MONOCYTE: 60.5 CELLS/uL
  ABSOLUTE SEGMENTED NEUTROPHIL: 980.67 CELLS/uL
  BASOPHIL: 0%
  EOSINOPHIL: 0.17%
  ERYTHROCYTE COUNT: 5.65 x10E6/uL
  HEMATOCRIT: 35.63%
  HEMOGLOBIN: 14.08 G/DL
  LEUKOCYTE COUNT: 14.93 x10E3/uL
  LYMPHOCYTE: 92.83%
  MEAN CORPUSCULAR HEMOGLOBIN: 24.97 pg
  MEAN CORPUSCULAR HEMOGLOBIN CONCENTRATION: 39.55 G/DL
  MEAN CORPUSCULAR VOLUME: 63.13 fL
  MONOCYTE: 0.33%
  NEUTROPHIL: 6.67%
  NUCLEATED RED BLOOD CELLS: 0 /100WBC
  PLATELET COUNT: 1248.17 x10E3/uL
  ALANINE AMINOTRANSFERASE: 45.17 u/L
  ALBUMIN: 4.27 G/DL
  ALKALINE PHOSPHATASE: 405.67 u/L
  ASPARTATE AMINOTRANSFERASE: 74.17 u/L
  BLOOD UREA NITROGEN: 15.5 mg/dL
  CARBON DIOXIDE: 30.17 mmol/L
  CHLORIDE: 100.67 MEQ/L
  CHOLESTEROL: 57 mg/dL
  CREATINE PHOSPHOKINASE: 239.5 u/L
  CREATININE: 0.17 mg/dL
  GLUCOSE: 165.67 mg/dL
  LACTATE DEHYDROGENASE: 90.5 u/L
  LIPASE: 8.83 u/L
  PHOSPHORUS: 12.32 mg/dL
  POTASSIUM: 7.03 MEQ/L
  SODIUM: 142.65 MEQ/L
  TOTAL BILIRUBIN: 0.18 mg/dL
  TOTAL PROTEIN: 6.03 G/DL
  URIC ACID: 1.98 mg/dL
